# Test results taken from patent publication US12636283B2, “Inhibition of PRC2 subunits to treat eye disorders” (FONDATION ASILE DES AVEUGLES, priority 2018, dated 2026).
# Entries after “also recorded” stand apart in the source; their conditions may differ.
# Assays:
# [1] = system: Fam161a-/- mice; experiment: Repeated weekly intravitreal injection of UNC1999 in Fam161a-/- mice, photoreceptor rows and H3K27me3; format: in vivo, mouse; settings: 2-month-old Fam161a-/- mice
# Description: (§1) The compound was delivered by intravitreal injection into the eyeball of PN08 Rd1 littermates. The animals (08 in total) were first anesthetized intraperitoneally (ip) with a mixture of 20 mg/kg Ketamine+300 μg/Kg of Dorbene. After 30 min, the recovery was performed by an ip injection of 300 μg/kg of Alzane. When necessary, the future edge of the eyelid was forced to open and maintained with forceps. The injection needle filled with 20 μM UNC1999 solution was inserted carefully into the vitreous through the sclera. A single dose (1 μl) of the intermediate solution was delivered slowly, leading to a final concentration of 2.5-3 μM, with a corresponding DMSO concentration of 0.0317%. For each animal, one eye received the compound whereas the other eye was injected with the vehicle. The injected animals were kept warmed and benefited from closest inspection until they wake up from anesthesia. 400 μl of 5% glucose and paracetamol were administered subcutaneously and intraperitoneally respectively to help for recovery before transferred back to their normal habits. The mice were sacrificed 4 days post injection and the eyeball excised as described below. Before processing, the eyes were carefully inspected for any sign of cataracts and unexpected lesions. Similarly, a single dose of UNC1999 (solution of 36 μM) was administered by intravitreal injection to 2 months old Fam161a^−/− mice (slow degenerative process), with repeated injection every week. The animal was sacrificed 4 days after the fourth injection.
# The animals were sacrificed by a 7 min exposure to CO2. […] All quantifications were performed on the most central cryosections including (or surrounding) the optic nerve. Measurements of rows of nuclei were taken at the same geographic area for both dorsal and ventral sides of the retina in all sections and slides analyzed. […]
# Immunohistochemistry was performed on treated and non-treated slides. […] Interacting probes were then detected by applying a solution of appropriate conjugated secondary antibodies Alexa Fluor 488 or Alexa fluor 633 diluted in PBS 1× 1 h at RT. […]
# [2] = system: C57/B16 healthy mice; experiment: ERG recording of retina function in healthy mice before and one week after intravitreal injection; format: in vivo, mouse
# Description: To test whether the UNC1999 dose tested ([…]) has a toxic effect on retina function, the retina activity of control (injected with the vehicle, DMSO) and UNC1999 treated C57/B16 healthy mice was recorded by ERG before and one week after intravitreal injection (FIG. 12). In scotopic condition, the b-wave maximum amplitude baseline of the DMSO treated group was a bit higher than the UNC1999 group one before the injection.
# [3] = target: T1, EZH2 (Mus musculus, UniProt Q61188); experiment: UNC1999 treatment of mouse embryonic fibroblasts, H3K27me3 immunostaining and western blot; format: cell-based
# T1 construct: endogenous in cells; host or cells: Mouse Embryonic Fibroblasts (MEF)
# T1 sequence (Q61188 whole entry): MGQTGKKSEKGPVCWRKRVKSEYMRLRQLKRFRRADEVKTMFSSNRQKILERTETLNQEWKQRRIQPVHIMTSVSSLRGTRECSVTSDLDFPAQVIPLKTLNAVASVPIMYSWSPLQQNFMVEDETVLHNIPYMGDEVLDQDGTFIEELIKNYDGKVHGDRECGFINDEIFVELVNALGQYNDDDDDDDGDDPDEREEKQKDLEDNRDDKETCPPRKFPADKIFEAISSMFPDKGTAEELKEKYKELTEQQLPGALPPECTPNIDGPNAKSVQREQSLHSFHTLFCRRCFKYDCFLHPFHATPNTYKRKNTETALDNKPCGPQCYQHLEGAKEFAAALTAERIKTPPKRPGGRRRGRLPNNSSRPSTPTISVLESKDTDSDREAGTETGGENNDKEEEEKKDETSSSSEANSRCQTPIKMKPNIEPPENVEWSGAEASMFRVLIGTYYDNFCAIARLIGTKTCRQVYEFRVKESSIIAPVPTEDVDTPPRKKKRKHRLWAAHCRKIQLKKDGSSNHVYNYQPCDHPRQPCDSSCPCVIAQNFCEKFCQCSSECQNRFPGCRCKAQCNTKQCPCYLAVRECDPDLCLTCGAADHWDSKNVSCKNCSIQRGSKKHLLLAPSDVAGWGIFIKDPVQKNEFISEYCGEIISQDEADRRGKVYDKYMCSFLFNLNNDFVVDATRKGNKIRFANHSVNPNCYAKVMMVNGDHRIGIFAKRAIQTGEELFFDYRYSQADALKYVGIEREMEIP
# T1 sequence (Q921E6 whole entry partner): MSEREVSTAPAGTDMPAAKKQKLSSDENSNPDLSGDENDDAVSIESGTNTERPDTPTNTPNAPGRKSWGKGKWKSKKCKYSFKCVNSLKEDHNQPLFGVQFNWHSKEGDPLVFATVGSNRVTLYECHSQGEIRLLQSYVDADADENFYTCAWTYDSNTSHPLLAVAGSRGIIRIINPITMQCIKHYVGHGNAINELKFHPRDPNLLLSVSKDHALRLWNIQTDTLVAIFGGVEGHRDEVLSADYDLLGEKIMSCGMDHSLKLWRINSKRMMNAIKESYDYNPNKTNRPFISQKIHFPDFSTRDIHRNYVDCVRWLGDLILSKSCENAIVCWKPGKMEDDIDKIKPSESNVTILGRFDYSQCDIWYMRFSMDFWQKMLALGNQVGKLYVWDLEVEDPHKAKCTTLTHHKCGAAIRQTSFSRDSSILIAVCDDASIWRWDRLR
# T1 sequence (Q80U70 whole entry partner): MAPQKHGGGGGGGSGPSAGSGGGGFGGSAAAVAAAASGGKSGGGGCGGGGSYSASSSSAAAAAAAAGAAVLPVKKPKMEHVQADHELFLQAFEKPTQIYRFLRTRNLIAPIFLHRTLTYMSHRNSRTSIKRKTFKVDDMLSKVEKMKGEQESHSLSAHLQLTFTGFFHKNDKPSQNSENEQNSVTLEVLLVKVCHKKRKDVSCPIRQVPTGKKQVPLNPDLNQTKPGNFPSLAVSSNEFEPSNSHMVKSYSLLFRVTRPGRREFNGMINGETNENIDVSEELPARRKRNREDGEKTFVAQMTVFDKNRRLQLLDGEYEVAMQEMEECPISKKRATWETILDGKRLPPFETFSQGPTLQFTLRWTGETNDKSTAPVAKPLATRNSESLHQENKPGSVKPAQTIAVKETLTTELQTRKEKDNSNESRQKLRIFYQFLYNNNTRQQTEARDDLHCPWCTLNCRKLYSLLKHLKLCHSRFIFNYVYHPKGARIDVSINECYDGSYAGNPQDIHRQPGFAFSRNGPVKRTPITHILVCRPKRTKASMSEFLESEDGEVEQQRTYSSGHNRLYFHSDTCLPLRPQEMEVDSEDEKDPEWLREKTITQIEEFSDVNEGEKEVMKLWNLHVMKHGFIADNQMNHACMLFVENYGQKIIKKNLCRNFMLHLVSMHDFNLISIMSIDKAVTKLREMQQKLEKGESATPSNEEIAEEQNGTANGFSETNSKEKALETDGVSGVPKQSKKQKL
# T1 sequence (Q60972 whole entry partner): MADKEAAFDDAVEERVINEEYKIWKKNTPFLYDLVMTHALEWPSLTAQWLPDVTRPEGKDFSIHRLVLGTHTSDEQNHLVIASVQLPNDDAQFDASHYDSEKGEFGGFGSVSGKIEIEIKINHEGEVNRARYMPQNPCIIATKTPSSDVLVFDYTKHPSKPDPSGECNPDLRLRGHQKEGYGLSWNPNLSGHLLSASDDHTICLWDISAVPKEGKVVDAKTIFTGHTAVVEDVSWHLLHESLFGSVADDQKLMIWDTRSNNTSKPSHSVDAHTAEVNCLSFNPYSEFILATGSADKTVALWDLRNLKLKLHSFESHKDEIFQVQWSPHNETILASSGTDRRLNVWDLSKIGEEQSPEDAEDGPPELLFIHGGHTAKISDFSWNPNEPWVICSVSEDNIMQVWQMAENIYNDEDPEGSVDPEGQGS
# Description: Mouse Embryonic Fibroblasts (MEF) were maintained in culture in Dulbecco's Modified Eagle's Media (DMEM), 10% fetal bovine serum (FBS) with penicillin and streptomycin, at 37° C., 5% CO2. The day before treatment, the cells were trypsinized and seeded at a density of 50,000 cells on poly-ornithine coated coverslips in 24 well plates. The next day, the media was discarded and fresh media containing various doses of the UNC1999 inhibitor dissolved in dimethyl sulfoxide (DMSO), ranging from 1 μM to 50 μM was added in triplicates, then incubated back at 37° C. for 48H. Control cells received the respective dimethyl sulfoxide DMSO used with the UNC1999. The coverslips were washed 3 times with pre-warmed phosphate buffer saline (PBS) 1× at room temperature (RT). The cells were fixed with 4% paraformaldehyde (PFA) for 12 min at RT. After two more washes in PBS, the cells were immediately proceeded for immunostaining. For western blot analysis, 200,000 cells were seeded in triplicates in 6 wells plates and treated as above.
# Immunohistochemistry was performed on treated and non-treated slides. The sections were washed 3 times with cooled PBS 1× before being permeabilized with Triton X-100 for 20 min to further allow optimal antibodies-antigens interactions everywhere in the tissue and cells. The sections were blocked for 1 h with buffer containing 3% BSA (w/v), 5% NGS (v/v) in PBS 1× containing 0.3% Triton X-100. Appropriate antibodies dilutions (see list of antibodies with their respective applications in Table 2) were prepared in blocking solution and sufficient amount were laid and transferred to 4° C. over-night. The next day, the antibodies solutions were shed-off and the remaining non-interacting probes were washed off 3 times with PBS 1×. Interacting probes were then detected by applying a solution of appropriate conjugated secondary antibodies Alexa Fluor 488 or Alexa fluor 633 diluted in PBS 1× 1 h at RT. Finally, the nuclei were counterstained with 4′,6-diamidino-2-phenylindole (DAPI) solution prepared in PBS. Alternatively, for difficult to retrieve antigens such as cGMP and CDK4, special conditions were applied: Successful detection of CDK4 requires signal amplification, either with TSA* fluorescein detection kit (PerkinElmer) or 3,3′-diaminobenzidine (DAB) revelation system (Dako) according to providers instructions. The cGMP detection was achieved by permeabilizing the membrane with soft detergent solution (0.1% Triton X-100) and using Tris buffer (TBS) throughout the incubation steps. All the preparations were mounted with Mowiol and measurements were taken using an Olympus BX60 fluorescence microscope or Zeiss confocal microscopy (LSM 510 3.2 software). […]
# [4] = system: Rd1 mice; experiment: Intravitreal injection of UNC1999 in PN8 Rd1 mice, H3K27me3 and TUNEL staining of the ONL; format: in vivo, mouse
# Description: The UNC1999 inhibitor was supplied as lyophilized powder from commercial source (#SML0778-5MG, SIGMA). The stock solution was prepared in 100% DMSO according to the manufacturer's instructions. Sufficient amount of DMSO was added to the vial to generate a 10 mM stock solution. For optimal injection procedure, we reviewed three different parameters prior to intermediate solution preparation. Firstly, considering the volume of the vitreous of young mice (post-natal day 8, PN08) which is approximately 5.3 μl; the maximum safe amount (1 μl) that could be injected (final volume 6.3 μl) and the calculated effective dose of […] obtained from increasing doses along with cell culture experiments (see below). Therefore, the stock solution was then diluted in physiological buffer (0.9% NaCl) in order to make a 20 μM intermediate solution for subsequent experiments.
# as §1
# The animals were sacrificed by a 7 min exposure to CO2. The Histology was performed on enucleated eyes. Prior to cryosectioning, the eye globes were excised from the optic nerve and were perforated at the cornea level (a single tiny hole) with 25 G needle and transfer to 4% PFA (w/v) at RT. After 1 h incubation period, the eyes were washed in PBS 1× before being transferred in 30% sucrose over night at 4° C. The eyes were embedded in yazula and frozen at −20° C. and then 14 μm sections were performed with cryostat. The sections were collected on six serial slides for each eye. All quantifications were performed on the most central cryosections including (or surrounding) the optic nerve. Measurements of rows of nuclei were taken at the same geographic area for both dorsal and ventral sides of the retina in all sections and slides analyzed. The data were pooled as a mean for the dorsal or ventral zone of the retina
# The frozen slides were warmed at RT, rehydrated and washed 3 times with PBS 1×. […]
# [5] = intravitreal, weekly, four injections, solution of 36 μM
# [6] = mouse embryonic fibroblasts, FIG. 7B
# [7] = Rd1 PN8, intravitreal, 2.5 μM final eye concentration, 4 days post injection, vs DMSO treated eye
# [8] = Rd1 eyes injected at PN8, 2.5 μM final eye concentration, vs vehicle (DMSO)
smiles,measurement,setting,value
CCCc1cc(C)[nH]c(=O)c1CNC(=O)c1cc(-c2ccc(N3CCN(C(C)C)CC3)nc2)cc2c1cnn2C(C)C [UNC1999],"levels of H3K27me3 hyper trimethylation, injected vs non-injected side","[1]; dorso-ventral axis, 4 days after the last injection",did not observe any statistical differences; also recorded: no changes were observed
same,number of photoreceptor rows in the dorsal compartment,[1]; [5],No significant difference
same,number of photoreceptor rows in the ventral ONL,[1]; [5],statistical significant preservation
same,ERG photopic response vs baseline,"[2]; 3 cda/s.m^2 stimulation, one week after injection, both DMSO and UNC1999 treated animals",reduced response
same,"ERG photopic flicker response, treated vs control group","[2]; 5, 10 and 15 Hz, one week after intravitreal injection",No differences between the control and the treated groups were observed
same,ERG flicker response vs baseline,"[2]; 5 Hz, both treated groups (DMSO and UNC1999)",a reduction of the response occurred
same,ERG flicker response,"[2]; 15 Hz, all groups",no differences were observed
same,"ERG photopic maximum b-wave amplitude, treated vs vehicle group","[2]; healthy adult mice, one week after intravitreal injection",No differences between the two groups were noticed
same,ERG scotopic maximum b-wave amplitude,"[2]; healthy adult mice, one week after intravitreal injection, vs DMSO group and baseline",no significant differences with the baseline; also recorded: No differences in retina activity
same,H3K27me3 mark by immunocytochemistry labelling,[3]; [6],robust decreased of the mark
same,levels of EZH2,[3]; [6],slightly affected
same,calculated effective dose,[3]; obtained from increasing doses along with cell culture experiments,6 µM
same,block of endogenous levels of H3K27me3,"[3]; proliferating mouse embryonic fibroblasts, 2.5 μM, compared to DMSO control",efficient to block the endogenous levels of H3K27me3
same,decline of hyper H3K27me3 signal in the ONL,[4]; [7],75%
same,decrease of number of TUNEL positive cells,[4]; [7],70%
same,H3K27me3 positive cells (in words),[4]; [8],marked reduction
same,TUNEL positive cells (in words),[4]; [8],marked reduction
same,retinal degeneration,[4]; Rd1 mouse,markedly delayed retinal degeneration
